These results are taken from patent US9504669B2, “Spliceostatin analogs and methods for their preparation” (PFIZER INC., priority 2012, dated 2016).

For orientation: IC50 means the concentration that gives 50% inhibition. Low values mean greater potency in that assay, high ones weaker potency in that assay.

Common to all, as to format: cell-based
The test system of experiment [1] is N87 (gastric cancer) cells. The experiment can be described thus: In vitro cell assay (MTS cell viability), N87. The note with it: free compounds (natural products and synthetic analogs), cell viability 96 hours after treatment. How it is done:
(§1) Target expressing (BT474 (breast cancer), N87 (gastric cancer), HCC1954 (breast cancer), MDA-MB-361-DYT2 (breast cancer)) or non-expressing (MDA-MB-468) cells were seeded in 96-well cell culture plates for 24 hours before treatment. Cells were treated with 3-fold serially diluted antibody-drug conjugates or free compounds (i.e., no antibody conjugated to the drug) in duplicate at 10 concentrations. Cell viability was determined by CellTiter 96® AQueous One Solution Cell Proliferation MTS Assay (Promega, Madison Wis.) 96 hours after treatment. Relative cell viability was determined as percentage of untreated control. IC50 values were calculated using a four parameter logistic model #203 with XLfit v4.2 (IDBS, Guildford, Surry, UK). The potency ranged upward from 0.0002 nm. Similar procedures and techniques were employed.

Experiment [2] relates to BT474 (breast cancer) cells. The experiment can be described thus: In vitro cell assay (MTS cell viability), BT474. The note with it: free compounds (natural products and synthetic analogs); cell viability 96 hours after treatment. How it is done:
as §1

Experiment [3] has as its system MDA-MB-361-DYT2 (breast cancer) cells. The experiment can be described thus: In vitro cell assay (MTS cell viability), MDA-MB-361-DYT2. The note with it: free compounds (natural products and synthetic analogs), cell viability 96 hours after treatment. On the procedure: as §1

Some results are limits rather than exact numbers.

Regarding `CC(=O)O[C@@H](C)/C=C\C(=O)N[C@@H]1C[C@H](C)[C@H](C/C=C(C)/C=C/[C@H]2O[C@H](CC(=O)N[C@H]3CC[C@H](N(C)C)CC3)C[C@@]3(CO3)[C@@H]2O)O[C@@H]1C` (relative stereo) [#B86, (2S,3Z)-5-{[(2R,3R,5S,6S)-6-{(2E,4E)-5-[(3R,4R,5R,7S)-7-(2-{[trans-4-(dimethylamino)cyclohexyl]amino}-2-oxoethyl)-4-hydroxy-1,6-dioxaspiro[2.5]oct-5-yl]-3-methylpenta-2,4-dien-1-yl}-2,5-dimethyltetrahydro-2H-pyran-3-yl]amino}-5-oxopent-3-en-2-yl acetate], the IC50 in experiment [1] was 14 nM; in experiment [2], 20.1 nM; in experiment [3], 73.3 nM.

On to `CC(=O)O[C@@H](C)/C=C\C(=O)N[C@@H]1C[C@H](C)[C@H](C/C=C(C)/C=C/[C@@H]2C[C@]3(CO3)C[C@@H](CC(=O)N[C@H]3CC[C@H](N(C)C)CC3)O2)O[C@@H]1C` (relative stereo) [#B87, (2S,3Z)-5-{[(2R,3R,5S,6S)-6-{(2E,4E)-5-[(3S,5S,7S)-7-(2-{[trans-4-(dimethylamino)cyclohexyl]amino}-2-oxoethyl)-1,6-dioxaspiro[2.5]oct-5-yl]-3-methylpenta-2,4-dien-1-yl}-2,5-dimethyltetrahydro-2H-pyran-3-yl]amino}-5-oxopent-3-en-2-yl acetate], for which the IC50 in experiment [1] came to 0.744 nM; in experiment [2], 1.21 nM; in experiment [3], 3.47 nM.

Take `CC(=O)O[C@@H](C)/C=C\C(=O)N[C@@H]1C[C@H](C)[C@H](C/C=C(C)/C=C/[C@@H]2C[C@]3(CO3)C[C@@H](CC(=O)N[C@H]3CC[C@@H](N(C)C)CC3)O2)O[C@@H]1C` (relative stereo) [#B90, (2S,3Z)-5-{[(2R,3R,5S,6S)-6-{(2E,4E)-5-[(3S,5S,7S)-7-(2-{[cis-4-(dimethylamino)cyclohexyl]amino}-2-oxoethyl)-1,6-dioxaspiro[2.5]oct-5-yl]-3-methylpenta-2,4-dien-1-yl}-2,5-dimethyltetrahydro-2H-pyran-3-yl]amino}-5-oxopent-3-en-2-yl acetate]: the IC50 worked out at 0.87 nM in experiment [1], 1.26 nM in experiment [2] and 3.9 nM in experiment [3].

On to `CCCNC(=O)NC[C@@H]1C[C@@]2(CO2)[C@H](O)[C@@H](/C=C/C(C)=C/C[C@@H]2O[C@H](C)[C@H](NC(=O)/C=C\[C@H](C)OC(C)=O)C[C@@H]2C)O1` [#B242, (2S,3Z)-5-{[(2R,3R,5S,6S)-6-{(2E,4E)-5-[(3R,4R,5R,7S)-4-hydroxy-7-{[(propylcarbamoyl)amino]methyl}-1,6-dioxaspiro[2.5]oct-5-yl]-3-methylpenta-2,4-dien-1-yl}-2,5-dimethyltetrahydro-2H-pyran-3-yl]amino}-5-oxopent-3-en-2-yl acetate], for which the IC50 came to 0.57 nM in experiment [1] (96 h) and 3.76 nM in experiment [3] (96 h).

In the case of `COC(=O)C[C@@H]1C[C@@]2(CO2)[C@H](OC)[C@@H](/C=C/C(C)=C/C[C@@H]2O[C@H](C)[C@H](NC(=O)/C=C\[C@H](C)O)C[C@@H]2C)O1` [#B264, methyl [(3R,5S,7R,8R)-7-{(1E,3E)-5-[(2S,3S,5R,6R)-5-{[(2Z,4S)-4-hydroxypent-2-enoyl]amino}-3,6-dimethyltetrahydro-2H-pyran-2-yl]-3-methylpenta-1,3-dien-1-yl}-8-methoxy-1,6-dioxaspiro[2.5]oct-5-yl]acetate], the IC50 in experiment [1] (96 h) and in experiment [3] (96 h) was > 100 nM each time.

Take `COC(=O)C[C@@H]1C[C@@]2(CO2)[C@H](OC)[C@@H](/C=C/C(C)=C/C[C@@H]2O[C@H](C)[C@H](NC(=O)/C=C\[C@H](C)OC(C)=O)C[C@@H]2C)O1` [#B265, methyl [(3R,5S,7R,8R)-7-{(1E,3E)-5-[(2S,3S,5R,6R)-5-{[(2Z,4S)-4-(acetyloxy)pent-2-enoyl]amino}-3,6-dimethyltetrahydro-2H-pyran-2-yl]-3-methylpenta-1,3-dien-1-yl}-8-methoxy-1,6-dioxaspiro[2.5]oct-5-yl]acetate]: the IC50 was 10.2 nM in experiment [1] (96 h) and 8.67 nM in experiment [3] (96 h).

As for `CC(=O)O[C@@H](C)/C=C\C(=O)N[C@@H]1C[C@H](C)[C@H](C/C=C(C)/C=C/[C@H]2O[C@H](CC(=O)NCc3ccc(C(N)=O)cc3)C[C@@]3(CO3)[C@@H]2O)O[C@@H]1C` [#B266, (2S,3Z)-5-{[(2R,3R,5S,6S)-6-{(2E,4E)-5-[(3R,4R,5R,7S)-7-{2-[(4-carbamoylbenzyl)amino]-2-oxoethyl}-4-hydroxy-1,6-dioxaspiro[2.5]oct-5-yl]-3-methylpenta-2,4-dien-1-yl}-2,5-dimethyltetrahydro-2H-pyran-3-yl]amino}-5-oxopent-3-en-2-yl acetate], the IC50 in experiment [1] (96 h) was 28.4 nM; in experiment [3] (96 h) it was > 100 nM.

Regarding `CC(=O)O[C@@H](C)/C=C\C(=O)N[C@@H]1C[C@H](C)[C@H](C/C=C(C)/C=C/[C@H]2O[C@H](CC(=O)Nc3ccc(C(N)=O)cc3)C[C@@]3(CO3)[C@@H]2O)O[C@@H]1C` [#B267, (2S,3Z)-5-{[(2R,3R,5S,6S)-6-{(2E,4E)-5-[(3R,4R,5R,7S)-7-{2-[(4-carbamoylphenyl)amino]-2-oxoethyl}-4-hydroxy-1,6-dioxaspiro[2.5]oct-5-yl]-3-methylpenta-2,4-dien-1-yl}-2,5-dimethyltetrahydro-2H-pyran-3-yl]amino}-5-oxopent-3-en-2-yl acetate], the values for the IC50 in experiment [1] (96 h) and in experiment [3] (96 h) were 3.44 nM and 23.8 nM, respectively.

`CC(/C=C/[C@@H]1C[C@]2(CO2)C[C@@H](CC(N)=O)O1)=C\C[C@@H]1O[C@H](C)[C@H](NC(=O)/C=C/C(C)N)C[C@@H]1C` (stereo partly drawn) [#B271, (2E)-4-amino-N-[(2R,3R,5S,6S)-6-{(2E,4E)-5-[(3S,5S,7S)-7-(2-amino-2-oxoethyl)-1,6-dioxaspiro[2.5]oct-5-yl]-3-methylpenta-2,4-dien-1-yl}-2,5-dimethyltetrahydro-2H-pyran-3-yl]pent-2-enamide]: the IC50 in experiment [1] and in experiment [3] was > 100 nM throughout.

For the compound `CC(/C=C/[C@@H]1C[C@]2(CO2)C[C@@H](CC(N)=O)O1)=C\C[C@@H]1O[C@H](C)[C@H](NC(=O)/C=C\C(C)N)C[C@@H]1C` (stereo partly drawn) [#B272, (2Z)-4-amino-N-[(2R,3R,5S,6S)-6-{(2E,4E)-5-[(3S,5S,7S)-7-(2-amino-2-oxoethyl)-1,6-dioxaspiro[2.5]oct-5-yl]-3-methylpenta-2,4-dien-1-yl}-2,5-dimethyltetrahydro-2H-pyran-3-yl]pent-2-enamide], the IC50 in experiment [1] (96 h) and in experiment [3] (96 h) was > 100 nM throughout.

With `CC(/C=C/[C@@H]1C[C@]2(CO2)C[C@@H](CC(N)=O)O1)=C\C[C@@H]1O[C@H](C)[C@H](NC(=O)/C=C/C(C)N)C[C@@H]1C` (stereo partly drawn) [#B273, (2E)-4-amino-N-[(2R,3R,5S,6S)-6-{(2E,4E)-5-[(3S,5S,7S)-7-(2-amino-2-oxoethyl)-1,6-dioxaspiro[2.5]oct-5-yl]-3-methylpenta-2,4-dien-1-yl}-2,5-dimethyltetrahydro-2H-pyran-3-yl]pent-2-enamide], the IC50 in experiment [1] is 600 nM; in experiment [3], > 1000 nM.

On to `CCCNC(=O)C[C@]1(O)C[C@@]2(CO2)[C@H](O)[C@@H](/C=C/C(C)=C/C[C@@H]2O[C@H](C)[C@H](NC(=O)/C=C\[C@H](C)OC(C)=O)C[C@@H]2C)O1` [#B275, (2S,3Z)-5-({(2R,3R,5S,6S)-6-[(2E,4E)-5-{(3R,4R,5R,7S)-4,7-dihydroxy-7-[2-oxo-2-(propylamino)ethyl]-1,6-dioxaspiro[2.5]oct-5-yl}-3-methylpenta-2,4-dien-1-yl]-2,5-dimethyltetrahydro-2H-pyran-3-yl}amino)-5-oxopent-3-en-2-yl acetate], for which the IC50 in experiment [1] (96 h) stood at 5.33 nM; in experiment [3] (96 h), 22.2 nM.

For the compound `COC(=O)C[C@@H]1C[C@@](O)(CCl)[C@H](O)[C@@H](/C=C/C(C)=C/C[C@@H]2O[C@H](C)[C@H](NC(=O)/C=C\[C@H](C)OC(C)=O)C[C@@H]2C)O1` [#B284, (1S,5R)-5-{(1E,3E)-5-[(2S,3S,5R,6R)-5-{[(2Z,4S)-4-(acetyloxy)pent-2-enoyl]amino}-3,6-dimethyltetrahydro-2H-pyran-2-yl]-3-methylpenta-1,3-dien-1-yl}-1,5-anhydro-3-C-(chloromethyl)-2-deoxy-1-(2-methoxy-2-oxoethyl)-D-erythro-pentitol], the IC50 in experiment [1] (96 h) came to 1.3 nM; in experiment [3] (96 h), 2.03 nM.

Turning to `CCCNC(=O)C[C@@H]1C[C@@](O)(CCl)C[C@@H](/C=C/C(C)=C/C[C@@H]2O[C@H](C)[C@H](NC(=O)/C=C\[C@H](C)OC(C)=O)C[C@@H]2C)O1` [#B285, (2S,3Z)-5-({(2R,3R,5S,6S)-6-[(2E,4E)-5-{(2S,4S,6S)-4-(chloromethyl)-4-hydroxy-6-[2-oxo-2-(propylamino)ethyl]tetrahydro-2H-pyran-2-yl}-3-methylpenta-2,4-dien-1-yl]-2,5-dimethyltetrahydro-2H-pyran-3-yl}amino)-5-oxopent-3-en-2-yl acetate], the results for the IC50 in experiment [1] (96 h) and in experiment [3] (96 h) were 7.61 nM and 11.7 nM, respectively.

As to `CCCNC(=O)C[C@@H]1C[C@@](O)(CCl)[C@H](O)[C@@H](/C=C/C(C)=C/C[C@@H]2O[C@H](C)[C@H](NC(=O)/C=C\[C@H](C)OC(C)=O)C[C@@H]2C)O1` [#B286, (1S,5R)-5-{(1E,3E)-5-[(2S,3S,5R,6R)-5-{[(2Z,4S)-4-(acetyloxy)pent-2-enoyl]amino}-3,6-dimethyltetrahydro-2H-pyran-2-yl]-3-methylpenta-1,3-dien-1-yl}-1,5-anhydro-3-C-(chloromethyl)-2-deoxy-1-[2-oxo-2-(propylamino)ethyl]-D-erythro-pentitol], the IC50 in experiment [1] (96 h) worked out at 0.387 nM; in experiment [3] (96 h), 1.11 nM.
